Legend:
IL-6 = IL-6 quantification in plasma by ELISA after DOX; type: in vivo; details: naive female BALB/c mice, 240 μg DOX IP, one day after injection
Procedure: For determination of IL-6 expression following DOX treatment, 7 weeks old naïve female BALB/c mice (n=3) were IP injected with 240 μg DOX. Control mice (n=3) were left untreated. One day after the injection, mice were bled by cardiac puncture and blood was collected into EDTA-coated tubes. […] Supernatants (representing the plasma samples) were collected and the level of IL-6 in the plasma was determined by ELISA (IL-6 Quantikine ELISA Kit, R&D systems) according to the manufacturer's instruction.
To investigate the effect of chemotherapy on the level of IL-6 in the circulation, naïve 7-weeks old female BALB/c mice were IP injected with 240 μg DOX (doxorubicin, Adriamycin™) or were left untreated (control mice). One day after the injection, the level of IL-6 in the plasma was determined by ELISA.

circulating factors = test: Mouse L308 Array screen of plasma from naive mice treated with FOLFOX or Paclitaxel chemotherapy; type: in vivo; details: circulating level, BALB/c mice
Procedure: Determination of proteins expression using protein arrays was performed according to the manufacturer's instructions.
To identify host-derived circulating factors whose levels change in response to chemotherapy, a protein array-based screens were performed using plasma from naïve (non-tumor bearing) mice that were treated with different chemotherapy types. The use of naïve mice allows identification of factors specifically generated by the host in response to chemotherapy, independent of tumor presence. […] Control mice (n=5) were injected with vehicle control. Twenty-four hours after treatment administration, mice were sacrificed, plasma was isolated and pooled per group. […] These factors, and their respective fold changes in response to each chemotherapy type (Paclitaxel™, FOLFOX™), are listed in Table 5.

COc1cccc2c1C(=O)c1c(O)c3c(c(O)c1C2=O)C[C@@](O)(C(=O)CO)C[C@@H]3O[C@H]1C[C@H](N)[C@H](O)[C@H](C)O1 [DOX, doxorubicin]
increase of plasma level of IL-6 compared to control (IL-6): 22 fold

CC(=O)O[C@H]1C(=O)[C@@]2(C)[C@H]([C@H](OC(=O)c3ccccc3)[C@]3(O)C[C@H](OC(=O)[C@H](O)[C@@H](NC(=O)c4ccccc4)c4ccccc4)C(C)=C1C3(C)C)[C@]1(OC(C)=O)CO[C@@H]1C[C@@H]2O [Paclitaxel, paclitaxel]
Fold change CRG-2 (chemotherapy-treated vs control) (circulating factors): >10 fold | Fold change CRP (chemotherapy-treated vs control) (circulating factors): >10 fold | Fold change CXCL14/BRAK (chemotherapy-treated vs control) (circulating factors): 2.6 fold | Fold change CXCL16 (chemotherapy-treated vs control) (circulating factors): 4.4 fold | Fold change CXCR2/IL-8 RB (chemotherapy-treated vs control) (circulating factors): 2.0 fold | Fold change CXCR6 (chemotherapy-treated vs control) (circulating factors): 3.6 fold | Fold change Cardiotrophin-1 (chemotherapy-treated vs control) (circulating factors): >10 fold | Fold change Cripto (chemotherapy-treated vs control) (circulating factors): >10 fold | Fold change Dkk-3 (chemotherapy-treated vs control) (circulating factors): >10 fold | Fold change Endocan (chemotherapy-treated vs control) (circulating factors): 4.4 fold | Fold change Endostatin (chemotherapy-treated vs control) (circulating factors): 4.9 fold | Fold change Eotaxin-2 (chemotherapy-treated vs control) (circulating factors): 3.4 fold | Fold change Erythropoietin (EPO) (chemotherapy-treated vs control) (circulating factors): 3.9 fold | Fold change Frizzled-6 (chemotherapy-treated vs control) (circulating factors): 2.2 fold | Fold change Frizzled-7 (chemotherapy-treated vs control) (circulating factors): 6.1 fold | Fold change GITR (chemotherapy-treated vs control) (circulating factors): >10 fold | Fold change GM-CSF (chemotherapy-treated vs control) (circulating factors): 2.4 fold | Fold change IGFBP-1 (chemotherapy-treated vs control) (circulating factors): >10 fold | Fold change IL-1 R4/ST2 (chemotherapy-treated vs control) (circulating factors): 1.9 fold | Fold change IL-1 alpha (chemotherapy-treated vs control) (circulating factors): >10 fold | Fold change IL-3 R alpha (chemotherapy-treated vs control) (circulating factors): >10 fold | Fold change IL-7 R alpha (chemotherapy-treated vs control) (circulating factors): 8.8 fold | Fold change IL-9 R (chemotherapy-treated vs control) (circulating factors): 5.7 fold | Fold change IL-12 p70 (chemotherapy-treated vs control) (circulating factors): >10 fold | Fold change IL-15 (chemotherapy-treated vs control) (circulating factors): 2.5 fold | Fold change IL-15 R alpha (chemotherapy-treated vs control) (circulating factors): 3.4 fold | Fold change IL-17R (chemotherapy-treated vs control) (circulating factors): 2.6 fold | Fold change IL-18 R alpha/IL-1 R5 (chemotherapy-treated vs control) (circulating factors): >10 fold | Fold change IL-20 (chemotherapy-treated vs control) (circulating factors): >10 fold | Fold change IL-23 R (chemotherapy-treated vs control) (circulating factors): 1.8 fold | Fold change IL-27 (chemotherapy-treated vs control) (circulating factors): 2.0 fold | Fold change IL-28/IFN-lambda (chemotherapy-treated vs control) (circulating factors): 5.4 fold | Fold change IL-31 (chemotherapy-treated vs control) (circulating factors): >10 fold | Fold change LIF (chemotherapy-treated vs control) (circulating factors): >10 fold | Fold change LIX (chemotherapy-treated vs control) (circulating factors): >10 fold | Fold change LRP-6 (chemotherapy-treated vs control) (circulating factors): >10 fold | Fold change Lungkine (chemotherapy-treated vs control) (circulating factors): 2.0 fold | Fold change Lymphotoxin beta R/TNFRSF3 (chemotherapy-treated vs control) (circulating factors): 1.6 fold | Fold change M-CSF (chemotherapy-treated vs control) (circulating factors): 1.8 fold | Fold change MAdCAM-1 (chemotherapy-treated vs control) (circulating factors): >10 fold | Fold change MCP-1 (chemotherapy-treated vs control) (circulating factors): >10 fold | Fold change MIP-1 gamma (chemotherapy-treated vs control) (circulating factors): >10 fold | Fold change MIP-2 (chemotherapy-treated vs control) (circulating factors): 3.1 fold | Fold change MMP-9 (chemotherapy-treated vs control) (circulating factors): 4.3 fold | Fold change P-Selectin (chemotherapy-treated vs control) (circulating factors): >10 fold | Fold change PF-4 (chemotherapy-treated vs control) (circulating factors): 3.6 fold | Fold change Prolactin (chemotherapy-treated vs control) (circulating factors): 4.1 fold | Fold change SDF-1 (chemotherapy-treated vs control) (circulating factors): >10 fold | Fold change Soggy-1 (chemotherapy-treated vs control) (circulating factors): 3.6 fold | Fold change TACI/TNFRSF13B (chemotherapy-treated vs control) (circulating factors): >10 fold | Fold change TARC (chemotherapy-treated vs control) (circulating factors): >10 fold | Fold change TCA-3 (chemotherapy-treated vs control) (circulating factors): 3.0 fold | Fold change TGF-beta 2 (chemotherapy-treated vs control) (circulating factors): 3.4 fold | Fold change TGF-beta RII (chemotherapy-treated vs control) (circulating factors): 2.2 fold | Fold change TNF-alpha (chemotherapy-treated vs control) (circulating factors): 2.8 fold | Fold change TNF-beta/TNFSF1B (chemotherapy-treated vs control) (circulating factors): 2.9 fold | Fold change TPO (chemotherapy-treated vs control) (circulating factors): >10 fold | Fold change TWEAK R/TNFRSF12 (chemotherapy-treated vs control) (circulating factors): >10 fold | Fold change Thrombospondin (chemotherapy-treated vs control) (circulating factors): >10 fold | Fold change Thymus Chemokine-1 (chemotherapy-treated vs control) (circulating factors): >10 fold | Fold change VEGFC (chemotherapy-treated vs control) (circulating factors): >10 fold | Fold change WISP-1/CCN4 (chemotherapy-treated vs control) (circulating factors): 3.7 fold

— patent US12070489B2, “Method of treating cancer with a cancer therapy in combination with another therapeutic agent” (Rappaport Family Institute for Research in the Medical …, priority 2018, dated 2024)
